{"source": "patent US8975232B2", "about": "“Macrocyclic kinase inhibitors and uses thereof” (President and Fellows of Harvard College, priority 2010, dated 2015)", "test_in_all_cases": "SelectScreen kinase profiling", "assay_type_in_all_cases": "biochemical", "key": {"MAP4K4 (HGK)": {"biological_target": "MAP4K4 (HGK) (Homo sapiens, UniProt O95819)", "conditions": "5 μM", "procedure,_shortened": "(§1)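 ATP was held near each kinase's KM,ATP except where noted. Under those conditions, a contract SelectScreen panel measured single-point inhibition and IC50 values.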"}, "ERBB4 (HER4)": {"biological_target": "ERBB4 (HER4) (Homo sapiens, UniProt Q15303)", "conditions": "5 μM", "procedure,_shortened": "as §1"}, "DYRK3": {"biological_target": "DYRK3 (Homo sapiens, UniProt O43781)", "sequence (O43781 whole entry)": "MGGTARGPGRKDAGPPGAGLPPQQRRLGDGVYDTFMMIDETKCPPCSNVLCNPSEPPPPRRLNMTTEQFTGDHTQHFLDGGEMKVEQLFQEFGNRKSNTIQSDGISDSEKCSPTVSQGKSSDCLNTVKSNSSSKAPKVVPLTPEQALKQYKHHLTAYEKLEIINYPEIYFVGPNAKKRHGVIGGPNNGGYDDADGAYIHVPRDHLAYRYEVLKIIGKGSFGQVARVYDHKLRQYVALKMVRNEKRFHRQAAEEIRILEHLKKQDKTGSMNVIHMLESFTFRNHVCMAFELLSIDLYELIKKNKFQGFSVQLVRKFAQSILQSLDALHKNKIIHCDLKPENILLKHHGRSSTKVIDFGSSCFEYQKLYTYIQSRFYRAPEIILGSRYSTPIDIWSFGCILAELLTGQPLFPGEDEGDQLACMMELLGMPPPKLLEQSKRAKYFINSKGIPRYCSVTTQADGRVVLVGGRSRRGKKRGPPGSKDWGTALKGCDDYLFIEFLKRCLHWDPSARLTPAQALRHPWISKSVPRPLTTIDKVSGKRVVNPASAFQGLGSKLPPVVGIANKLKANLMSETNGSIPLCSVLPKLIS", "conditions": "5 μM", "procedure,_shortened": "as §1"}, "MAPK14 (p38 alpha)": {"biological_target": "MAPK14 (p38 alpha) (Homo sapiens, UniProt Q16539)", "sequence (Q16539 whole entry)": "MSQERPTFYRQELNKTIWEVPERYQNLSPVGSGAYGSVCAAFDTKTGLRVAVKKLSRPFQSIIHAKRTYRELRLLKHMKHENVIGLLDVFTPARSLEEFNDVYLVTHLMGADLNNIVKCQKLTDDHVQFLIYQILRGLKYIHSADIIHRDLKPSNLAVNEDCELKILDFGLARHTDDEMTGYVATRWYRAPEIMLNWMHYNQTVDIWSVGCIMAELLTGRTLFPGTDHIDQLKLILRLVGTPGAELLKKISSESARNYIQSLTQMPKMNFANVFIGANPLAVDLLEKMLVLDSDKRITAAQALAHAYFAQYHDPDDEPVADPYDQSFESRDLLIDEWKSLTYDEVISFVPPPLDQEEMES", "conditions": "5 μM", "procedure,_shortened": "as §1"}, "MARK2": {"biological_target": "MARK2 (Homo sapiens, UniProt Q7KZI7)", "conditions": "5 μM", "procedure,_shortened": "as §1"}, "MAP2K6 (MKK6)": {"biological_target": "MAP2K6 (MKK6) (Homo sapiens, UniProt P52564)", "conditions": "5 μM", "procedure,_shortened": "as §1"}, "MAPK1 (ERK2)": {"biological_target": "MAPK1 (ERK2) (Homo sapiens, UniProt P28482)", "sequence (P28482 whole entry)": "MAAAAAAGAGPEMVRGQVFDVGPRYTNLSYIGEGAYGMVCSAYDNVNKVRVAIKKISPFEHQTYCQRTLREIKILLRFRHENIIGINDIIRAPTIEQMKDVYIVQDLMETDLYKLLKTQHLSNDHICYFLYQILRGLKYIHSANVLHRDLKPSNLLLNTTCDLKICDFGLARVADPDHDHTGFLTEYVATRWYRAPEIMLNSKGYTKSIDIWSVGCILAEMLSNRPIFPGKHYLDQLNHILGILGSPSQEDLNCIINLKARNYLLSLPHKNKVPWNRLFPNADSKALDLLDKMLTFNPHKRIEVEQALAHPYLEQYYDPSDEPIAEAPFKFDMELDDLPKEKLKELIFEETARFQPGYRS", "conditions": "5 μM", "procedure,_shortened": "as §1"}, "FRK (PTK5)": {"biological_target": "FRK (PTK5) (Homo sapiens, UniProt P42685)", "conditions": "5 μM", "procedure,_shortened": "as §1"}, "PRKACA (PKA)": {"biological_target": "PRKACA (PKA) (Homo sapiens, UniProt P17612)", "conditions": "5 μM", "procedure,_shortened": "as §1"}, "LCK": {"biological_target": "LCK (Homo sapiens, UniProt P06239)", "conditions": "5 μM", "procedure,_shortened": "as §1"}, "PAK4": {"biological_target": "PAK4 (Homo sapiens, UniProt O96013)", "sequence (O96013 whole entry)": "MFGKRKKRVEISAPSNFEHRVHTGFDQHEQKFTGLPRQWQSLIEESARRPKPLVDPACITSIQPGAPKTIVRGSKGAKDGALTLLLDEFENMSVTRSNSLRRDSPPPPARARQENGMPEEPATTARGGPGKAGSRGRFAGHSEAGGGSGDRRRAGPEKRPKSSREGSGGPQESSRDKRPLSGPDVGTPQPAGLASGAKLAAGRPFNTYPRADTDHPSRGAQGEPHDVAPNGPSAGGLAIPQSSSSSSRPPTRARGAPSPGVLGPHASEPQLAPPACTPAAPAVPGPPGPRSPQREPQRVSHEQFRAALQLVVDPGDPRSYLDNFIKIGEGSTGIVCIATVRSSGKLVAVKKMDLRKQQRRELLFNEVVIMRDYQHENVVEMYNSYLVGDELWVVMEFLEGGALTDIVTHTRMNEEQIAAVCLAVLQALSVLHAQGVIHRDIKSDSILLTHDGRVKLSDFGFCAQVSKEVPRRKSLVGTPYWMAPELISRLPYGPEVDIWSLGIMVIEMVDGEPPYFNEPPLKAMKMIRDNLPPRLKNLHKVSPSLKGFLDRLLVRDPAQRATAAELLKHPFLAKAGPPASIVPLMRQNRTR", "conditions": "5 μM", "procedure,_shortened": "as §1"}, "CHEK1 (CHK1)": {"biological_target": "CHEK1 (CHK1) (Homo sapiens, UniProt O14757)", "conditions": "5 μM", "procedure,_shortened": "as §1"}, "IKBKB (IKK beta)": {"biological_target": "IKBKB (IKK beta) (Homo sapiens, UniProt O14920)", "conditions": "5 μM", "procedure,_shortened": "as §1"}, "ROCK1": {"biological_target": "ROCK1 (Homo sapiens, UniProt Q13464)", "sequence (Q13464 whole entry)": "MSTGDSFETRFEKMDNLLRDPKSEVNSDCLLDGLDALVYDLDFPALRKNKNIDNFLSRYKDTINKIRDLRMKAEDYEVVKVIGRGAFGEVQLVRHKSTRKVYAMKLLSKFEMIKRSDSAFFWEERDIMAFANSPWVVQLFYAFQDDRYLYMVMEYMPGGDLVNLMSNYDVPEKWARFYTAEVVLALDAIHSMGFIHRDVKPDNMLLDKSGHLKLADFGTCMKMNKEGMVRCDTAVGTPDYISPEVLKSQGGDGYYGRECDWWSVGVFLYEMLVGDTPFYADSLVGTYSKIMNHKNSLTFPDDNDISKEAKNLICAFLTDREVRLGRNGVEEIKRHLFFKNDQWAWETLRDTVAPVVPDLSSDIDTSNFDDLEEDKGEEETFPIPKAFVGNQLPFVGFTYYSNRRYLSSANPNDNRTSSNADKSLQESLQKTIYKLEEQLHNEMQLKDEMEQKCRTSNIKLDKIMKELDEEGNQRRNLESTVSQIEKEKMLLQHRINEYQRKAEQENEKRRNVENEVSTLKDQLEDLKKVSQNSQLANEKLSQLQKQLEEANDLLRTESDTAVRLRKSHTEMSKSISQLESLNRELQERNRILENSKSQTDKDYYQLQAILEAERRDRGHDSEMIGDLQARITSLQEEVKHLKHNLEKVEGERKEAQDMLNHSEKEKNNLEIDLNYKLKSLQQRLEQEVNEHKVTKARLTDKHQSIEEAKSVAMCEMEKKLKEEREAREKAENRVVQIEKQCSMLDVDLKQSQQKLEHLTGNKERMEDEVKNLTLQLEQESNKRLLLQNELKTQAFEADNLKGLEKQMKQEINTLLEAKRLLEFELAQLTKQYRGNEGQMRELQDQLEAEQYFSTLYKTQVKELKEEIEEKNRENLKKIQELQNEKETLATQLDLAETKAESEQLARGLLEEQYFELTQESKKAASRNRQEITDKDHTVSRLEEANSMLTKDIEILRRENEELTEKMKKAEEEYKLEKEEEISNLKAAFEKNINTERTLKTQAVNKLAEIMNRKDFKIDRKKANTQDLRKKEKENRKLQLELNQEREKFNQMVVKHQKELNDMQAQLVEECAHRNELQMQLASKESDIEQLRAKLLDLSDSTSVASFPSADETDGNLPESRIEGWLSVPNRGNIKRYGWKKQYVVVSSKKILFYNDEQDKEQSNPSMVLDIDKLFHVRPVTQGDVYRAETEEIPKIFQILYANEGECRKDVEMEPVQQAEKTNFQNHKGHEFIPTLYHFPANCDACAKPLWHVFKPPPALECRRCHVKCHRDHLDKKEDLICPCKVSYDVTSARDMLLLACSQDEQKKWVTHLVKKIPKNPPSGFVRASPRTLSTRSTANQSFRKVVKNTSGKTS", "conditions": "5 μM", "procedure,_shortened": "as §1"}, "ABL1": {"biological_target": "ABL1 (Homo sapiens, UniProt P00519)", "conditions": "ABL1; 5 μM", "procedure,_shortened": "as §1"}, "AURKB (Aurora B)": {"biological_target": "AURKB (Aurora B) (Homo sapiens, UniProt Q96GD4)", "conditions": "AURKB (Aurora B); 5 μM", "procedure,_shortened": "as §1"}, "GSK3B (GSK3 beta)": {"biological_target": "GSK3B (GSK3 beta) (Homo sapiens, UniProt P49841)", "conditions": "5 μM", "procedure,_shortened": "as §1"}, "BLK": {"biological_target": "BLK (Homo sapiens, UniProt P51451)", "sequence (P51451 whole entry)": "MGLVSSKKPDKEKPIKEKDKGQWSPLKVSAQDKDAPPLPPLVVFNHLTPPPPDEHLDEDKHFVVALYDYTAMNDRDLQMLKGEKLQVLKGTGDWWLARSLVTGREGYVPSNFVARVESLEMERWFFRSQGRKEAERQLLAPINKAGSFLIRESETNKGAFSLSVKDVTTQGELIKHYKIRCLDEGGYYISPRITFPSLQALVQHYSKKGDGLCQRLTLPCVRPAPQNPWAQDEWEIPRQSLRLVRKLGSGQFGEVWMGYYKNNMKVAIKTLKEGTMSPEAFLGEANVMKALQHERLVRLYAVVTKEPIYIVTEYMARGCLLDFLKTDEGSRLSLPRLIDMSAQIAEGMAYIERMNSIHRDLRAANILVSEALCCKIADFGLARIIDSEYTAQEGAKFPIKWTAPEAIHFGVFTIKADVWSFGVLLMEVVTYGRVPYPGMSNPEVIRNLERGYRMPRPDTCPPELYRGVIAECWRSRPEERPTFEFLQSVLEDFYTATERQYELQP", "conditions": "5 μM", "procedure,_shortened": "as §1"}, "IGF1R": {"biological_target": "IGF1R (Homo sapiens, UniProt P08069)", "conditions": "5 μM", "procedure,_shortened": "as §1"}, "LYN B": {"biological_target": "LYN B (Homo sapiens, UniProt P07948)", "conditions": "5 μM", "procedure,_shortened": "as §1"}, "MET (cMet)": {"biological_target": "MET (cMet) (Homo sapiens, UniProt P08581)", "conditions": "5 μM", "procedure,_shortened": "as §1"}, "AMPK A1/B1/G1": {"biological_target": "AMPK A1/B1/G1 (Homo sapiens, UniProt Q13131)", "conditions": "5 μM", "procedure,_shortened": "as §1"}, "SYK": {"biological_target": "SYK (Homo sapiens, UniProt P43405)", "conditions": "5 μM", "procedure,_shortened": "as §1"}, "BTK": {"biological_target": "BTK (Homo sapiens, UniProt Q06187)", "conditions": "5 μM", "procedure,_shortened": "as §1"}, "[1]": {"biological_target": "MAPK14 (p38 alpha) Direct (Homo sapiens, UniProt Q16539)", "sequence (Q16539 whole entry)": "as the sequence (Q16539 whole entry) above", "conditions": "5 μM", "procedure,_shortened": "as §1"}, "FLT3": {"biological_target": "FLT3 (Homo sapiens, UniProt P36888)", "sequence (P36888 27-993)": "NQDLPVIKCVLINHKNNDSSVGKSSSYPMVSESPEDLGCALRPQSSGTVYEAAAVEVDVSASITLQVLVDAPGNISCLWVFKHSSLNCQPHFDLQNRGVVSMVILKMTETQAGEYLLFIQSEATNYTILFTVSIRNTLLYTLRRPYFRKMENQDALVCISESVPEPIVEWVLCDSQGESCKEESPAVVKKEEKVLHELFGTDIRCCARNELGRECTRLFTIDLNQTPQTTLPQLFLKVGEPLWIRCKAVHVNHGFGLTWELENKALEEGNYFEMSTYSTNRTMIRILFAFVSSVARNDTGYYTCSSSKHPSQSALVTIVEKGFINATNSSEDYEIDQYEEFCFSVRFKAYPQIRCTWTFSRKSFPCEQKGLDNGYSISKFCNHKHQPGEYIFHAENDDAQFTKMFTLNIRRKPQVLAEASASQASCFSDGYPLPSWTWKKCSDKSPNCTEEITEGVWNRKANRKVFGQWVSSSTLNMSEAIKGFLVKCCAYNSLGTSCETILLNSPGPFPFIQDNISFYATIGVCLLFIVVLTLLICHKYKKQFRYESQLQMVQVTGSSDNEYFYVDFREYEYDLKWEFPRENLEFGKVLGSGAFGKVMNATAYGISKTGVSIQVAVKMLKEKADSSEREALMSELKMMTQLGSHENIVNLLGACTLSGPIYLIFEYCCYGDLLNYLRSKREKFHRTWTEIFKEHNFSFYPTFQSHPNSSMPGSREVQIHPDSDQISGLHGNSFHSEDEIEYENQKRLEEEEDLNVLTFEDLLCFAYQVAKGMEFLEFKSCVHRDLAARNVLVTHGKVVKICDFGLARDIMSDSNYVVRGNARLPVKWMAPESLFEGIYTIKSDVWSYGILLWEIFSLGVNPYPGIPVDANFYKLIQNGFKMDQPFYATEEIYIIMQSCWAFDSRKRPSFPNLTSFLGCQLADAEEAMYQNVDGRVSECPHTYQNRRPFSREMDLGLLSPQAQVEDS", "conditions": "5 μM", "procedure,_shortened": "as §1"}, "AURKA (Aurora A)": {"biological_target": "T1, AURKA (Aurora A) (Homo sapiens, UniProt O14965)", "T1 sequence (O14965 1-403)": "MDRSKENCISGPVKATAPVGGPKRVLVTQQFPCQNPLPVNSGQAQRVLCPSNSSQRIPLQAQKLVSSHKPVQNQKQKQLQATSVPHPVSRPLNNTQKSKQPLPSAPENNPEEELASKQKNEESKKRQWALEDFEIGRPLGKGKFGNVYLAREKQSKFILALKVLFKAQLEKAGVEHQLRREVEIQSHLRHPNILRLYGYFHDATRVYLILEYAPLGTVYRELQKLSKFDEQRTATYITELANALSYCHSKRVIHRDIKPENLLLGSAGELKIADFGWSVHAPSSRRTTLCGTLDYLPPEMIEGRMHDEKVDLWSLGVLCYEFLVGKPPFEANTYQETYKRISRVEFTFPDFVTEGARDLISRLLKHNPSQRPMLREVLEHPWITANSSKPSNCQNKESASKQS", "conditions": "AURKA (Aurora A); 5 μM", "procedure,_shortened": "as §1"}, "AKT1 (PKB alpha)": {"biological_target": "AKT1 (PKB alpha) (Homo sapiens, UniProt P31749)", "conditions": "5 μM", "procedure,_shortened": "as §1"}, "RPS6KA3 (RSK2)": {"biological_target": "RPS6KA3 (RSK2) (Homo sapiens, UniProt P51812)", "conditions": "5 μM", "procedure,_shortened": "as §1"}, "AURKC (Aurora C)": {"biological_target": "AURKC (Aurora C) (Homo sapiens, UniProt Q9UQB9)", "conditions": "5 μM", "procedure,_shortened": "as §1"}}}
{"smiles": "NC(=O)[C@@H]1CCCNC(=O)[C@H](Cc2ccc([N+](=O)[O-])cc2)NC(=O)[C@H](Cc2ccco2)NC(=O)[C@H](CC2CC2)NC(=O)/C=C/C(=O)N1", "note": "[trans-A10-B1-C5-D6]", "values": [{"measurement": "% inhibition", "setting": "MAP4K4 (HGK)", "result": "−1", "unit": "%"}, {"measurement": "% inhibition", "setting": "ERBB4 (HER4)", "result": 4, "unit": "%"}, {"measurement": "% inhibition", "setting": "DYRK3", "result": 4, "unit": "%"}, {"measurement": "% inhibition", "setting": "MAPK14 (p38 alpha)", "result": 32, "unit": "%"}, {"measurement": "% inhibition", "setting": "MARK2", "result": 1, "unit": "%"}, {"measurement": "% inhibition", "setting": "MAP2K6 (MKK6)", "result": "−1", "unit": "%"}, {"measurement": "% inhibition", "setting": "MAPK1 (ERK2)", "result": "−3", "unit": "%"}, {"measurement": "% inhibition", "setting": "FRK (PTK5)", "result": 15, "unit": "%"}, {"measurement": "% inhibition", "setting": "PRKACA (PKA)", "result": "−1", "unit": "%"}, {"measurement": "% inhibition", "setting": "LCK", "result": 17, "unit": "%"}, {"measurement": "% inhibition", "setting": "PAK4", "result": "−2", "unit": "%"}, {"measurement": "% inhibition", "setting": "CHEK1 (CHK1)", "result": "−15", "unit": "%"}, {"measurement": "% inhibition", "setting": "IKBKB (IKK beta)", "result": "−1", "unit": "%"}, {"measurement": "% inhibition", "setting": "ROCK1", "result": 12, "unit": "%"}, {"measurement": "% inhibition", "setting": "ABL1", "result": 18, "unit": "%"}, {"measurement": "% inhibition", "setting": "AURKB (Aurora B)", "result": 0, "unit": "%"}, {"measurement": "% inhibition", "setting": "GSK3B (GSK3 beta)", "result": "−6", "unit": "%"}, {"measurement": "% inhibition", "setting": "BLK", "result": 10, "unit": "%"}, {"measurement": "% inhibition", "setting": "IGF1R", "result": 9, "unit": "%"}, {"measurement": "% inhibition", "setting": "LYN B", "result": 7, "unit": "%"}, {"measurement": "% inhibition", "setting": "MET (cMet)", "result": "−8", "unit": "%"}, {"measurement": "% inhibition", "setting": "AMPK A1/B1/G1", "result": "−1", "unit": "%"}, {"measurement": "% inhibition", "setting": "SYK", "result": "−1", "unit": "%"}, {"measurement": "% inhibition", "setting": "BTK", "result": 4, "unit": "%"}, {"measurement": "% inhibition", "setting": "[1]", "result": "−9", "unit": "%"}, {"measurement": "% inhibition", "setting": "FLT3", "result": 7, "unit": "%"}, {"measurement": "% inhibition", "setting": "AURKA (Aurora A)", "result": 10, "unit": "%"}, {"measurement": "% inhibition", "setting": "AKT1 (PKB alpha)", "result": "−7", "unit": "%"}, {"measurement": "% inhibition", "setting": "RPS6KA3 (RSK2)", "result": "−4", "unit": "%"}, {"measurement": "% inhibition", "setting": "AURKC (Aurora C)", "result": 2, "unit": "%"}]}
